Assay results reported in patent US20090264433A1, “Compounds, Compositions and Methods Comprising Triazine Derivatives” (Institute for OneWorld Health, priority 2008, published 2009).

target: T1, CFTR channel in human colonic T84 cells (Homo sapiens, UniProt P13569); experiment: T84 assay (FLIPR membrane potential dye, forskolin/IBMX-stimulated CFTR); assay type: cell-based; conditions: average of at least 2 runs unless annotated n = 1
T1 construct: results in the phosphorylation and opening of CFTR anion channels; host or cells: human colonic T84 cells
T1 sequence (P13569 whole entry): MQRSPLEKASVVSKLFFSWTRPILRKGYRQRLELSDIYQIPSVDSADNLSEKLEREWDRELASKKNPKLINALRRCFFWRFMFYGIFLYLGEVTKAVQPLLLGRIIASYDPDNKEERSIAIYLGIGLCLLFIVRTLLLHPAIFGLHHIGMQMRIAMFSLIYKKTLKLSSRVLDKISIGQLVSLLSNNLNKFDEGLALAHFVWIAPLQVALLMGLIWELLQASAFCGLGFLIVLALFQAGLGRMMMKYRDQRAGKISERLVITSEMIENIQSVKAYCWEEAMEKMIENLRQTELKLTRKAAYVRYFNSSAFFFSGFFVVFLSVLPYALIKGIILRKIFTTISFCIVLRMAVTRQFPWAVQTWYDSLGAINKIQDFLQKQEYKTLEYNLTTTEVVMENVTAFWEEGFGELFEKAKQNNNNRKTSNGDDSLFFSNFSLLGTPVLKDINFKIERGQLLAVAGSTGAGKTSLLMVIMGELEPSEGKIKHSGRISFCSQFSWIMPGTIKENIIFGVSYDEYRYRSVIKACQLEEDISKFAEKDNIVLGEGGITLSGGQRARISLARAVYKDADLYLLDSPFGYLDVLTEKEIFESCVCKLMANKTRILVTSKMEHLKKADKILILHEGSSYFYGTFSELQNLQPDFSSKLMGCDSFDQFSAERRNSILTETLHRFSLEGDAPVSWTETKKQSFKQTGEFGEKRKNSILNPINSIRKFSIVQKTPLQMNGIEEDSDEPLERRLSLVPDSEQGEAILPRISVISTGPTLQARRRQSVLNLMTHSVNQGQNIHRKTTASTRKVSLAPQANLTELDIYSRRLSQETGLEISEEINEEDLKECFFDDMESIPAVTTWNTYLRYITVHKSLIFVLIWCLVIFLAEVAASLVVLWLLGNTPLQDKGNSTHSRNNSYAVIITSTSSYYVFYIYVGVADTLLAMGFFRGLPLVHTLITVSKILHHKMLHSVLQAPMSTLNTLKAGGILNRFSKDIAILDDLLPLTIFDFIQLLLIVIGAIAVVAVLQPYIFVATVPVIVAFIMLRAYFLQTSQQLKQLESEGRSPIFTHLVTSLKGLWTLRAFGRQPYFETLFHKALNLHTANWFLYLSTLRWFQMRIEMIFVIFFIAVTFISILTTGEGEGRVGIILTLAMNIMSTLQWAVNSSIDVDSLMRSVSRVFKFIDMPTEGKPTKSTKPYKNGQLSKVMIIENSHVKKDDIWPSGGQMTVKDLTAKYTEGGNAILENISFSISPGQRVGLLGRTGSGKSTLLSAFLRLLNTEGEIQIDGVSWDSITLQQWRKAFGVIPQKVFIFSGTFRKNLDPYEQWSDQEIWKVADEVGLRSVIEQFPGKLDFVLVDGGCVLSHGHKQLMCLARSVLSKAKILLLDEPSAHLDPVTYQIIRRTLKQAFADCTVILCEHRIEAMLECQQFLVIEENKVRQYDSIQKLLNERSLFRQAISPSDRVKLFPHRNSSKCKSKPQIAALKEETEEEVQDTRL
Experimental: (§1) For example, Human colonic T84 cells can be acquired from the European Collection of Cell Cultures (ECACC) and grown in standard culture conditions as described by the supplier. On the day before assay 25,000 T84 cells per well are plated into standard black walled, clear bottom 384-well assay plates in standard growth medium consisting of DMEM:F12 with 10% FBS and incubated overnight. On the day of the assay the plates are washed using a standard assay buffer (HBSS with 10 mM Hepes) and incubated for 15 minutes in serum free cell culture medium before the addition of a commercially available membrane potential sensitive fluorescent dye (FLIPR Red membrane potential dye, Molecular Devices Corporation). T84 cells are incubated with the FLIPR Red membrane potential dye for 45 minutes in the presence and absence of test compound before being transferred to a commercially available fluorescence imaging plate reader (FLIPR384, Molecular Devices Corporation). Fluorescence levels are monitored continuously every second for 150 seconds; after an initial 10 second baseline, CFTR channel activity is stimulated through the addition of 10 μM forskolin in the presence of 100 μM of the phosphodiesterase inhibitor iso-butyl-methylxanthine (IBMX). Addition of the forskolin leads to the activation of intracellular adenylyl cylase 1, elevating cAMP levels and results in the phosphorylation and opening of CFTR anion channels. CFTR channel opening causes chloride ion efflux and subsequent depolarization of the cells, which is measured by an increase in fluorescence. CFTR inhibitor compounds prevent cell depolarization and the associated increase in fluorescence.
as §1, with “Human colonic” for “For example, Human colonic”, “T84 cells are acquired from” for “T84 cells can be acquired from”, “(ECACC) and are grown in” for “(ECACC) and grown in”

Compound | IC50 [µM]
Oc1c(Br)cc(-c2cnc(OCCc3cccc4ccccc34)nn2)cc1Br [Compound 1, 2,6-dibromo-4-(3-(2-(naphthalen-1-yl)ethoxy)-1,2,4-triazin-6-yl)phenol] | 0.26
Oc1c(Br)cc(-c2cnc(OCc3ccc(F)c(F)c3)nn2)cc1Br [Compound 3, 2,6-dibromo-4-(3-(3,4-difluorobenzyloxy)-1,2,4-triazin-6-yl)phenol] | 0.48
Oc1c(Br)cc(-c2cnc(OCc3ccccc3Br)nn2)cc1Br [Compound 6, 2,6-dibromo-4-(3-(2-bromobenzyloxy)-1,2,4-triazin-6-yl)phenol] | 0.7
Oc1c(Br)cc(-c2cnc(OCc3ccc4ccccc4c3)nn2)cc1Br [Compound 8, 2,6-dibromo-4-(3-(naphthalen-2-ylmethoxy)-1,2,4-triazin-6-yl)phenol] | 0.72
CC(Oc1ncc(-c2cc(Br)c(O)c(Br)c2)nn1)c1ccc(Cl)cc1 (stereo not shown) [Compound 11, 2,6-dibromo-4-(3-(1-(4-chlorophenyl)ethoxy)-1,2,4-triazin-6-yl)phenol] | 0.84
CC(Oc1ncc(-c2cc(Br)c(O)c(Br)c2)nn1)c1cccc(Cl)c1 (stereo not shown) [Compound 12, 2,6-dibromo-4-(3-(1-(3-chlorophenyl)ethoxy)-1,2,4-triazin-6-yl)phenol] | 0.84
Oc1c(Br)cc(-c2cnc(OCc3cccc4ccccc34)nn2)cc1Br [Compound 13, 2,6-dibromo-4-(3-(naphthalen-1-ylmethoxy)-1,2,4-triazin-6-yl)phenol] | 0.88
Oc1c(Br)cc(-c2cnc(OCc3ccc(-c4ccccc4)cc3)nn2)cc1Br [Compound 14, 4-(3-(biphenyl-4-ylmethoxy)-1,2,4-triazin-6-yl)-2,6-dibromophenol] | 0.89
Oc1c(Br)cc(-c2cnc(OCc3ccc(C(F)(F)F)cc3)nn2)cc1Br [Compound 16, 2,6-dibromo-4-(3-(4-(trifluoromethyl)benzyloxy)-1,2,4-triazin-6-yl)phenol] | 1.07
CN(C)c1cccc(COc2ncc(-c3cc(Br)c(O)c(Br)c3)nn2)c1 [Compound 17, 2,6-dibromo-4-(3-(3-(dimethylamino)benzyloxy)-1,2,4-triazin-6-yl)phenol] | 1.17
Oc1c(Br)cc(-c2cnc(OCc3ccccc3)nn2)cc1Br [Compound 19, 4-(3-(benzyloxy)-1,2,4-triazin-6-yl)-2,6-dibromophenol] | 1.37

Other lines, results leading:

IC50 [µM] | Compound
0.32 | Oc1c(Br)cc(-c2cnc(OCCc3ccc(Br)cc3)nn2)cc1Br [Compound 2, 2,6-dibromo-4-(3-(4-bromophenethoxy)-1,2,4-triazin-6-yl)phenol]
0.54 | Oc1c(Br)cc(-c2cnc(OCc3ccc(F)cc3F)nn2)cc1Br [Compound 4, 2,6-dibromo-4-(3-(2,4-difluorobenzyloxy)-1,2,4-triazin-6-yl)phenol]
0.7 | COc1ccc(Cl)cc1COc1ncc(-c2cc(Br)c(O)c(Br)c2)nn1 [Compound 5, 2,6-dibromo-4-(3-(5-chloro-2-methoxybenzyloxy)-1,2,4-triazin-6-yl)phenol]
0.72 | Oc1c(Br)cc(-c2cnc(OCc3cccc(Cl)c3)nn2)cc1Br [Compound 7, 2,6-dibromo-4-(3-(3-chlorobenzyloxy)-1,2,4-triazin-6-yl)phenol]
0.77 | Oc1c(Br)cc(-c2cnc(OCc3ccc(F)cc3Cl)nn2)cc1Br [Compound 9, 2,6-dibromo-4-(3-(2-chloro-4-fluorobenzyloxy)-1,2,4-triazin-6-yl)phenol]
0.66 | Oc1c(Br)cc(-c2cnc(OCCc3ccc(Cl)cc3Cl)nn2)cc1Br [Compound 10, 2,6-dibromo-4-(3-(2,4-dichlorophenethoxy)-1,2,4-triazin-6-yl)phenol]
0.94 | Oc1c(Br)cc(-c2cnc(OCc3ccc(Cl)cc3Cl)nn2)cc1Br [Compound 15, 2,6-dibromo-4-(3-(2,4-dichlorobenzyloxy)-1,2,4-triazin-6-yl)phenol]
1.18 | Oc1c(Br)cc(-c2cnc(OCc3ccccc3Cl)nn2)cc1Br [Compound 18, 2,6-dibromo-4-(3-(2-chlorobenzyloxy)-1,2,4-triazin-6-yl)phenol]
